Results: patent US5955607A, “Sulfonamide-substituted chromans, processes for their preparation, their use as a medicament or diagnostic, and pharmaceutical preparations comprising them” (priority 1997, dated 1999)
Counter-ions that a name gives are not always drawn.

Molecular target: T1, human IsK protein (UniProt P15382+P70057)
T1 construct: channel formed with endogenous oocyte KCNQ1; two-microelectrode voltage clamp
Assay: cell-based
Settings: human IsK expressed in Xenopus oocytes, -10 mV voltage jumps lasting 15 s, room temperature, pH 7.5; Hill equation

T1 sequence (P70057 whole entry): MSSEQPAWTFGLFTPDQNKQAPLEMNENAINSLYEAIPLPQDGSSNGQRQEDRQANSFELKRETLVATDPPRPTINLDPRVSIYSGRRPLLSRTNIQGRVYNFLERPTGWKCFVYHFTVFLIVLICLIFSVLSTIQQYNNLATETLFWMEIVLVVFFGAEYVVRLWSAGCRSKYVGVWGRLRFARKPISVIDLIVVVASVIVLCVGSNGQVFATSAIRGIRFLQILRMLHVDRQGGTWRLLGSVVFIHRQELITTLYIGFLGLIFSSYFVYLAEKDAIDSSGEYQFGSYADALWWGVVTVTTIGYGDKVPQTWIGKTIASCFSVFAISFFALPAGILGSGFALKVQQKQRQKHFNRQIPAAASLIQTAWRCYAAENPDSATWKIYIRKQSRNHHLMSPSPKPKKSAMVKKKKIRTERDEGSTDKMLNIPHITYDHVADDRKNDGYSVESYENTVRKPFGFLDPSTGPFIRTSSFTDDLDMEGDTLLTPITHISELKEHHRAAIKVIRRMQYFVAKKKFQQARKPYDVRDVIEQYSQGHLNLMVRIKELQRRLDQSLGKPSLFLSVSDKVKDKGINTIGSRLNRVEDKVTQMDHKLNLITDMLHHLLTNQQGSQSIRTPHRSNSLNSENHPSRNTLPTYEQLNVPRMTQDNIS

| IC50 [nM] | SMILES |
| --- | --- |
| 280 | CCOC(=O)CN(C)C(=O)CCCN(C1CC(C)(C)Oc2ccc(OCc3ccccc3)cc21)S(C)(=O)=O (stereo not shown) [Example 31, Ethyl ({4-[(6-benzyloxy-2,2-dimethylchroman-4-yl)methanesulfonylamino]butyryl}methylamino)acetate] |
| 1000 | CCOCCOCCOC(=O)CN(C1CC(CC)(CC)Oc2ccc(C)cc21)S(=O)(=O)CC (stereo not shown) [Example 4, 2-(2-Ethoxyethoxy)ethyl [(2,2-diethyl-6-methylchroman-4-yl)-ethylsulfonylamino]acetate] |
| 1600 | CCS(=O)(=O)N(CC(=O)NCCc1ccccn1)C1CC(C)(C)Oc2ccc(F)cc21 (stereo not shown) [Example 9, 2-[Ethylsulfonyl-(6-fluoro-2,2-dimethylchroman-4-yl)amino]-N-(2-pyridin-2-ylethyl)acetamide] |
| 83 | CCS(=O)(=O)N(CC(=O)OCCN(C)Cc1ccccc1)C1CC(C)(C)Oc2ccc(F)cc21 (stereo not shown) [Example 49, 2-(Benzylmethylamino)ethyl [ethanesulfonyl-(6-fluoro-2,2-dimethylchroman-4-yl)amino]acetate] |
| < 1000 | CCS(=O)(=O)N(CC(=O)NCCN(C)Cc1ccccc1)C1CC(C)(C)Oc2ccc(F)cc21 (stereo not shown) [Example 62, N-[2-(Benzyl-methyl-amino)-ethyl]-2-[ethanesulfonyl-(6-fluoro-2,2-dimethyl-chroman-4-yl)-amino]-acetamide] |
| 250 | CCOC(=O)CN(C)C(=O)CN(C1CC(C)(C)Oc2ccc(OCc3ccccc3)cc21)S(C)(=O)=O (stereo not shown) [Example 32, Ethyl ({2-[(6-benzyloxy-2,2-dimethylchroman-4-yl)methanesulfonylamino]acetyl}methylamino)acetate] |
| 830 | CCS(=O)(=O)N(CC(=O)Nc1nc[nH]n1)C1CC(C)(C)Oc2ccc(F)cc21 (stereo not shown) [Example 54, 2-[Ethanesulfonyl-(6-fluoro-2,2-dimethylchroman-4-yl)amino]-N-(1H-[1,2,4]triazol-3-yl)acetamide] |
| 46 | CCS(=O)(=O)N(CC(=O)NCCc1ccccc1)C1CC(C)(C)Oc2ccc(F)cc21 (stereo not shown) [Example 21, 2-[Ethanesulfonyl-(6-fluoro-2,2-dimethylchroman-4-yl)amino]-N-phenethylacetamide] |
| < 1000 | COCCOCCCCN(C1CC(C)(C)Oc2ccc(OCc3ccccc3)cc21)S(C)(=O)=O (stereo not shown) [Example 29, N-(6-Benzyloxy-2,2-dimethylchroman-4-yl)-N-[4-(2-methoxyethoxy)butyl]methanesulfonamide] |
| 1000 | CCS(=O)(=O)N(CC(=O)Nc1ncccn1)C1CC(C)(C)Oc2ccc(F)cc21 (stereo not shown) [Example 24, 2-[Ethanesulfonyl-(6-fluoro-2,2-dimethylchroman-4-yl)amino]-N-pyrimidin-2-ylacetamide] |
| 1420 | COCCOCCN(C1CC(C)(C)Oc2ccc(OCc3ccccc3)cc21)S(C)(=O)=O (stereo not shown) [Example 38, N-(6-Benzyloxy-2,2-dimethylchroman-4-yl)-N-[2-(2-methoxyethoxy)ethyl]methanesulfonamide] |
| 500 | CC1(C)Oc2ccc(Cl)cc2[C@@H](N(CC(=O)NCCc2ccccc2)S(C)(=O)=O)[C@@H]1O (relative stereo) [Example 58, 2-[(6-Chloro-3-hydroxy-2,2-dimethylchroman-4-yl)methanesulfonylamino]-N-phenethylacetamide] |
| 550 | CCS(=O)(=O)N(CC(=O)Nc1cccnc1)C1CC(C)(C)Oc2ccc(F)cc21 (stereo not shown) [Example 23, 2-[Ethanesulfonyl-(6-fluoro-2,2-dimethylchroman-4-yl)-amino]N-pyridin-3-ylacetamide] |
| 470 | CCCCNC(=O)CCCN(C1CC(C)(C)Oc2ccc(OCc3ccccc3)cc21)S(C)(=O)=O (stereo not shown) [Example 28, 4-[(6-Benzyloxy-2,2-dimethylchroman-4-yl)methanesulfonylamino]-N-butylbutyramide] |
| 450 | CCS(=O)(=O)N(CC(=O)Nc1cnccn1)C1CC(C)(C)Oc2ccc(F)cc21 (stereo not shown) [Example 25, 2-[Ethanesulfonyl-(6-fluoro-2,2-dimethylchroman-4-yl)amino]-N-pyrazin-2-ylacetamide] |
| < 1000 | CC1(C)CC(N(CC(=O)NCCc2ccccn2)S(C)(=O)=O)c2cc(OCc3ccccc3)ccc2O1 (stereo not shown) [Example 17, 2-[(6-Benzyloxy-2,2-dimethylchroman-4-yl)methanesulfonylamino]-N-(2-pyridin-2-yl-ethyl)acetamide] |
| 2100 | CCS(=O)(=O)N(CC(=O)Nc1nc2ccccc2n1C)C1CC(C)(C)Oc2ccc(F)cc21 (stereo not shown) [Example 27, 2-[Ethanesulfonyl-(6-fluoro-2,2-dimethylchroman-4-yl)amino]-N-(1-methyl-1H-benzoimidazol-2-yl)acetamide] |
| < 1000 | CCS(=O)(=O)N(CC(=O)Nc1nc2ccccc2[nH]1)C1CC(C)(C)Oc2ccc(F)cc21 (stereo not shown) [Example 61, N-(1H-Benzoimidazol-2-yl)-2-[ethanesulfonyl-(6-fluoro-2,2-dimethyl-chroman-4-yl)-amino]-acetamide] |
| 670 | CCS(=O)(=O)N(CC(=O)Nc1ccncc1)C1CC(C)(C)Oc2ccc(F)cc21 (stereo not shown) [Example 22, 2-[Ethanesulfonyl-(6-fluoro-2,2-dimethylchroman-4-yl)amino]-N-pyridin-4-ylacetamide] |
| 350 | CN(CCc1ccccn1)C(=O)CN(C1CC(C)(C)Oc2ccc(OCc3ccccc3)cc21)S(C)(=O)=O (stereo not shown) [Example 40, 2-[(6-Benzyloxy-2,2-dimethylchroman-4-yl)methanesulfonylamino]-N-methyl-N-(2-pyridin-2-yl-ethyl)acetamide hydrochloride] |
| 310 | CN(CCc1ccccc1)C(=O)CN(C1CC(C)(C)Oc2ccc(OCc3ccccc3)cc21)S(C)(=O)=O (stereo not shown) [Example 39, 2-[(6-Benzyloxy-2,2-dimethylchroman-4-yl)methanesulfonylamino]-N-methyl-N-phenethylacetamide] |
| 180 | CCS(=O)(=O)N(CC(=O)Nc1ccccn1)C1CC(C)(C)Oc2ccc(F)cc21 (stereo not shown) [Example 14, 2-[(6-Fluoro-2,2-dimethylchroman-4-yl)ethanesulfonylamino]-N-pyridin-2-ylacetamide] |
| 790 | Cc1ccc2c(c1)C(N(CCCCC(=O)OCCN(C)Cc1ccccc1)S(C)(=O)=O)CC(C)(C)O2 (stereo not shown) [Example 10, 2-(Benzylmethylamino)ethyl 5-[methanesulfonyl-(2,2,6-trimethylchroman-4-yl)amino]pentanoate] |

| SMILES | IC50 [nM] |
| --- | --- |
| CCCCOc1ccc2c(c1)C(N(CC(=O)NC(=N)N)S(C)(=O)=O)CC(C)(C)O2 (stereo not shown) [Example 56, N-(6-Butoxy-2,2-dimethylchroman-4-yl)-N-(2-guanidino-2-oxoethyl)methanesulfonamide] | 3400 |
| CCCCOc1ccc2c(c1)C(N(CCCOCCO)S(C)(=O)=O)CC(C)(C)O2 (stereo not shown) [Example 45, N-(6-Butoxy-2,2-dimethylchroman-4-yl)-N-[3-(2-hydroxyethoxy)propyl]methanesulfonamide] | 450 |
| CCCCOc1ccc2c(c1)C(N(CCOCCOC)S(C)(=O)=O)CC(C)(C)O2 (stereo not shown) [Example 42, N-(6-Butoxy-2,2-dimethylchroman-4-yl)-N-[2-(2-methoxyethoxy)ethyl]methanesulfonamide] | 340 |
| CCCCOc1ccc2c(c1)C(N(CCOCC(=O)O)S(C)(=O)=O)CC(C)(C)O2 (stereo not shown) [Example 43, {2-[(6-Butoxy-2,2-dimethylchroman-4-yl)methanesulfonylamino]ethoxy}acetic acid] | 7800 |
| CCCCOc1ccc2c(c1)C(N(CCCOC(=O)NCCN1CCOCC1)S(C)(=O)=O)CC(C)(C)O2 (stereo not shown) [Example 47, 3-[(6-Butoxy-2,2-dimethylchroman-4-yl)methanesulfonylamino]propyl (^2-morpholin-4-yl-ethyl)carbamate] | 750 |
| CC1(C)CC(N(CCCCOCC(=O)O)S(C)(=O)=O)c2cc(OCc3ccccc3)ccc2O1 (stereo not shown) [Example 34, {4-[(6-Benzyloxy-2,2-dimethylchroman-4-yl)methanesulfonylamino]butoxy}acetic acid] | ~700 |

System: IKr
Assay: not given
Settings: known class III antiarrhythmics; cited from earlier work

| SMILES | block of IKr |
| --- | --- |
| CC(C)NC[C@@H](O)c1ccc(NS(C)(=O)=O)cc1 [d-sotalol] | mainly or exclusively block IKr |

System: K^+ (ATP) channel
Assay: not given
Settings: cromakalim (formula A) and analogous acylamino compounds; cited from earlier work

| SMILES | action on ATP-sensitive K^+ channels |
| --- | --- |
| CC1(C)Oc2ccc(C#N)cc2[C@@H](N2CCCC2=O)[C@@H]1O (relative stereo) [cromakalim] | act as openers of ATP-sensitive K^+ channels |
